Experimental findings from paper PMC8554203, “Inhibition of Bromodomain and Extra Terminal (BET) Domain Activity Modulates the IL-23R/IL-17 Axis and Suppresses Acute Graft-Versus-Host Disease” (Frontiers in Oncology, 2021) are described below.

Like-named read-outs stand apart in the source and are kept apart here.

Assay [1] addresses T1, BRD4 (Homo sapiens, UniProt O60885).
T1 construct: BRD4-BD12 (engineered protein containing both bromodomains)
In words: substrate binding (displacement) assay with engineered tandem bromodomain protein. The settings on record: read-out: PLX2853 / IC50 (μM) ^a.

Assay [2] deals with T2, BRD2 (Homo sapiens, UniProt P25440).
T2 construct: BRD2-BD12 (engineered protein containing both bromodomains)
Described as above.

T2 sequence (P25440 74-453 limits assumed): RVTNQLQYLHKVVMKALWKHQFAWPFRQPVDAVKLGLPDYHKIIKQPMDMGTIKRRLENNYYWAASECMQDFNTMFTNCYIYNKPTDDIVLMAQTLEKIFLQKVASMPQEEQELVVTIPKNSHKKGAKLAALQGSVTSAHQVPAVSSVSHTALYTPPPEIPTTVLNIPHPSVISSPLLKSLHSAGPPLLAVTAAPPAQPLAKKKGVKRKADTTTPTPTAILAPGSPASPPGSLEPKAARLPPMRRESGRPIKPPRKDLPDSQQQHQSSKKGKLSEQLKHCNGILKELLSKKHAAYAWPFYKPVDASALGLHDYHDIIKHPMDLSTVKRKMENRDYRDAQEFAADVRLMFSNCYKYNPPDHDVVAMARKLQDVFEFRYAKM

Turning to `Cc1noc(C)c1-c1cnc2c(-c3ccc(C(=O)O)cc3)cn(C(C)(c3ccccn3)c3ccccn3)c2c1` [PLX2853], the IC50 in assay [1] was found to be 0.0043 µM; in assay [2] (read-out: PLX2853 / IC50 (μM) ^a), 0.0073 µM.
`Cc1noc(C)c1-c1cnc2c(-c3ccc(C(=O)O)cc3)cn([C@@H](C)c3ccccn3)c2c1` [PLX51107]: in assay [2], the IC50 came out at 0.052 µM.
